Here are results for eleven compounds from article PMC10143822, “Structural Adaptation of the Single-Stranded DNA-Binding Protein C-Terminal to DNA Metabolizing Partners Guides Inhibitor Design” (Pharmaceutics, 2023).

A word on the IC50: it is the concentration needed to halve the response being measured.

Test [1] has as its target T1, ExoI (Escherichia coli, UniProt P04995).
T1 construct: His-tag (cleaved yes); host or cells: E. coli BL21 (DE3) pLysS
Put plainly: biochemical. In kind it is binding, E. coli. How it is done: (§1) Triplicate measurements were performed using a Clariostar Plus Microplate Reader in 384-well plates for all fluorescence anisotropy (FA) experiments. The settings were 25 °C, excitation at 485 nm, emission at 510 nm, settling time of 0.2 s, and 200 flashes per well.
(§2) Competition fluorescence anisotropy experiments were carried out as follows: protein (0.5 μM either ExoI or RecO) was incubated with 50 nM F-wtSSB peptide and 0–500 μM unlabeled wtSSB (or a variant) peptide for 30 min at room temperature. For direct fluorescence anisotropy measurements, 16 µM ExoI and 7.5 µM RecO were used in the first well. After serial dilution, either 50 nM of F-mSSB or F-sSSB was added to the wells and then incubated for 30 min. Buffers used included 20 mM Tris-HCl (pH 8.0), 100 mM NaCl, 1 mM MgCl2, 1 mM 2-mercaptoethanol, 10% (v/v) glycerol, for ExoI and 20 mM Tris-HCl (pH 8.0), 200 mM NaCl, 1 mM 2-mercaptoethanol, 10% (v/v) glycerol, and 0.01% Triton-X 100 for RecO [37].
(§3) Fluorescence anisotropy values were normalized and are shown as bound fractions (BF, %). BF=r−rmin/λ(rmax−r)+r−rmin, I=2∗PG+S, r=S−PG/I, where r: anisotropy, I: total intensity, P: perpendicular intensity, S: parallel intensity, G: an instrument factor set to 1, BF: ligand fraction bound, and λ=λbound/λunbound=1 .
(§4) Competitive fluorescence anisotropy was analyzed in Origin Pro 9.5, and IC50 values were determined using the Logistic Nonlinear fit function and are shown as plots for each mutated position for each protein in Figures S4 and S6. EC50 values from direct fluorescence anisotropy titrations were plotted in Origin 9.5. Values were determined using the Logistics Nonlinear fit function.

In test [2] the target is T2, RecO (Escherichia coli, UniProt P0A7H3).
T2 construct: His-tag (TEV site) (N, cleaved yes); made in house; host or cells: E. coli Rosetta cells
Put plainly: biochemical. The settings on record: 0.5 μM RecO, 50 nM F-wtSSB tracer, 0–500 μM unlabeled peptide, 30 min room temperature; 20 mM Tris-HCl pH 8.0, 200 mM NaCl, 10% glycerol, 0.01% Triton-X 100; 25 °C; triplicate; read-out: IC50 on RecO, competitive fluorescence anisotropy. Format: binding. How it is done:
as §1, §2, §3, §4
(Polarisation of emitted light reports the rotation of a fluorescent probe.)

Where a SMILES comes first, the peptide text is derived from it. Where no end group is shown, it is not given here. [ ]: non-standard residue; d: D form. Phe(4-F) = N[C@@H](Cc1ccc(F)cc1)C(=O)O; β3hI = CC[C@H](C)[C@H](N)CC(=O)O; 3Pal = N[C@@H](Cc1cccnc1)C(=O)O; Tic = O=C(O)[C@@H]1Cc2ccccc2CN1; β3hF = N[C@H](CC(=O)O)Cc1ccccc1; Tle = CC(C)(C)[C@H](N)C(=O)O

T2 sequence (P0A7H3 whole entry): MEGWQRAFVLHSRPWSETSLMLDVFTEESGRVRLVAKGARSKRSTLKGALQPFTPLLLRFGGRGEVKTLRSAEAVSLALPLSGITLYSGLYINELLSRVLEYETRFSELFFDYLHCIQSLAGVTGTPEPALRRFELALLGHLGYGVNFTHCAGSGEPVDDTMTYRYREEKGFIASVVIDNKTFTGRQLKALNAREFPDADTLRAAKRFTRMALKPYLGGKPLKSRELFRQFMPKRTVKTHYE
T1 sequence (P04995 whole entry): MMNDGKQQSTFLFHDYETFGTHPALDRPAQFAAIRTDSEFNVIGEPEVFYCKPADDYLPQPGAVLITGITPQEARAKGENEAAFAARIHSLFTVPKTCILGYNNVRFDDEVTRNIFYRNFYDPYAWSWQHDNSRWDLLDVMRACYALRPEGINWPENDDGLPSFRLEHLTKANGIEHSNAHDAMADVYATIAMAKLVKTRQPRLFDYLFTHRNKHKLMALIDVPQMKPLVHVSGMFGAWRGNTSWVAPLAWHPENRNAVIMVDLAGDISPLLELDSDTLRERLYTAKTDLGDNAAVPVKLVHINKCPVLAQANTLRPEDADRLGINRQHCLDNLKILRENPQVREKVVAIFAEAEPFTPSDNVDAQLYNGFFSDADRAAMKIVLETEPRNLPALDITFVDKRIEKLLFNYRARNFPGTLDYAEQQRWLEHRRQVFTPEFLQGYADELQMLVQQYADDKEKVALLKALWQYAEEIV

With `CC[C@H](C)[C@H](NC(=O)[C@H](CC(=O)O)NC(=O)[C@H](CC(=O)O)NC(=O)[C@H](CC(=O)O)NC(=O)C[C@H](Cc1ccccc1)NC(=O)[C@H](CC(=O)O)NC(C)=O)C(=O)N1CCC[C@H]1C(=O)N[C@@H](Cc1ccccc1)C(=O)O` [β3-Phe2] (Ac-D[β3hF]DDDIPF-OH), the results for the IC50 in test [1] and in test [2] were 3.8 ± 0.11 µM and 3.66 ± 0.61 µM, respectively.

As for `CC[C@H](C)[C@H](NC(=O)[C@H](CC(=O)O)NC(=O)[C@H](CC(=O)O)NC(=O)[C@H](CC(=O)O)NC(=O)[C@H](Cc1ccccc1)NC(=O)[C@H](CC(=O)O)NC(C)=O)C(=O)N1CCC[C@H]1C(=O)N[C@@H](Cc1ccc(F)cc1)C(=O)O` [4-F-Phe8] (Ac-DFDDDIP[Phe(4-F)]-OH), the IC50 in test [1] amounted to 3.04 ± 0.64 µM; in test [2], 4.07 ± 7.98 µM.

As to `CC[C@H](C)[C@H](NC(=O)[C@H](CC(=O)O)NC(=O)[C@@H](CC(=O)O)NC(=O)[C@H](CC(=O)O)NC(=O)[C@H](Cc1ccccc1)NC(=O)[C@H](CC(=O)O)NC(C)=O)C(=O)N1CCC[C@H]1C(=O)N[C@@H](Cc1ccccc1)C(=O)O` [D-Asp4] (Ac-DFD[dD]DIPF-OH), the 50% inhibitory concentration (IC50) in test [1] amounted to 3.08 ± 0.07 µM; in test [2], 5.92 ± 0.91 µM.

For `CC[C@H](C)[C@H](NC(=O)[C@H](CC(=O)O)NC(=O)[C@H](CC(=O)O)NC(=O)[C@H](CC(=O)O)NC(=O)[C@@H](Cc1ccccc1)NC(=O)[C@H](CC(=O)O)NC(C)=O)C(=O)N1CCC[C@H]1C(=O)N[C@@H](Cc1ccccc1)C(=O)O` [D-Phe2] (Ac-D[dF]DDDIPF-OH), the results for the IC50 in test [1] and in test [2] were 3.49 ± 2.41 µM and 2.75 ± 0.59 µM, respectively.

Consider `CC[C@H](C)[C@H](NC(=O)[C@H](CC(=O)O)NC(=O)[C@H](CC(=O)O)NC(=O)[C@H](CC(=O)O)NC(=O)[C@@H]1Cc2ccccc2CN1C(=O)[C@H](CC(=O)O)NC(C)=O)C(=O)N1CCC[C@H]1C(=O)N[C@@H](Cc1ccccc1)C(=O)O` [Tic2] (Ac-D[Tic]DDDIPF-OH), for which the half-inhibitory concentration (IC50) in test [1] turned out to be 6.6 ± 0.55 µM; in test [2], 3.99 ± 0.1 µM.

For the compound `CC[C@H](C)[C@@H](CC(=O)N1CCC[C@H]1C(=O)N[C@@H](Cc1ccccc1)C(=O)O)NC(=O)[C@H](CC(=O)O)NC(=O)[C@H](CC(=O)O)NC(=O)[C@H](CC(=O)O)NC(=O)[C@H](Cc1ccccc1)NC(=O)[C@H](CC(=O)O)NC(C)=O` [β3-Ile6] (Ac-DFDDD[β3hI]PF-OH), the values for the IC50 in test [1] and in test [2] were 11.28 ± 0.03 µM and 19.2 ± 7.47 µM, respectively.

As for `CC(=O)N[C@@H](CC(=O)O)C(=O)N[C@@H](Cc1ccccc1)C(=O)N[C@@H](CC(=O)O)C(=O)N[C@@H](CC(=O)O)C(=O)N[C@@H](CC(=O)O)C(=O)N[C@H](C(=O)N1CCC[C@H]1C(=O)N[C@@H](Cc1ccccc1)C(=O)O)C(C)(C)C` [tBuGly6] (Ac-DFDDD[Tle]PF-OH), the IC50 in test [1] came to 2.87 ± 0.26 µM; in test [2], 10.4 ± 1.02 µM.

Take Ac-EFDDDIPF [Glu1]: the figures for the half-inhibitory concentration (IC50) in test [1] and in test [2] were 1.33 ± 0.09 µM and 5.17 ± 1.1 µM, respectively.

Take Ac-NFDDDIPF [Asn1]: the figures for the 50% inhibitory concentration (IC50) in test [1] and in test [2] were 9.31 ± 0.4 µM and 13.8 ± 17.2 µM, respectively.

As for `CC[C@H](C)[C@H](NC(=O)[C@H](CC(=O)O)NC(=O)[C@H](CC(=O)O)NC(=O)[C@H](CC(=O)O)NC(=O)[C@H](Cc1cccnc1)NC(=O)[C@H](CC(=O)O)NC(C)=O)C(=O)N1CCC[C@H]1C(=O)N[C@@H](Cc1ccccc1)C(=O)O` [3Pal2] (Ac-D[3Pal]DDDIPF-OH), the IC50 in test [1] was determined as 7.47 ± 0.88 µM; in test [2], 11.7 ± 0.8 µM.

Ac-DFNDDIPF [Asn3]: the IC50 in test [1] is 6.36 ± 0.36 µM; in test [2], 14.2 ± 1.8 µM.
